The subject of one data set is DIO mouse. Nature of the data set: Anti-obesity effect test using DIO mouse. The note with it: 336 h, DIO mice, vs vehicle group, read-out: Weight loss rate; for inhibition in vivo at 50 mg/kg: oral 50 mg/kg once daily for 2 weeks. It is filed as in vivo. As for the experimental part:
(Test Example 4): Anti-Obesity Effect Test Using DIO Mouse
Diet-induced obesity (DIO) mice (D-12492 diet, male, C57BL-DIO, 26 to 28-week old) were orally administered with a 0.5 W/V % methylcellulose suspension comprising each test compound (Compound administration group, 5 or 6 mice/group) or a 0.5 W/V % methylcellulose suspension (Compound non-administration group (Vehicle group), 6 mice/group) once daily for 2 weeks. Weight loss rate was calculated by the following equation. Weight loss rate (%) of each Compound administration group−(1−average weight at the last day of the test of each Compound administration group/average weight at the last day of the test of Vehicle group)×100

Data set [1] can be described thus: Rat pharmacokinetic (PK) test (plasma concentration after oral administration). The conditions noted are these: male, SD, 10 mg/kg.
Data set [2] concerns the target T1, Human recombinant enteropeptidase (Homo sapiens, UniProt P98073).
T1 construct: purchased BIO Vision Inc. 7529-50
Nature of the data set: Human enteropeptidase inhibition test. The conditions noted are these: 20 minutes after reaction start, read-out: Inhibition rate (enteropeptidase); for inhibition at 0.001 µM: compound concentration 1 nM; for inhibition at 0.01 µM: compound concentration 10 nM; for inhibition at 0.1 µM: compound concentration 100 nM. It is filed as biochemical. On the procedure: (Test Example 1): Human Enteropeptidase Inhibition Test
Human recombinant enteropeptidase (manufactured by BIO Vision Inc., catalog no.: 7529-50) was diluted with an assay buffer (50 mM tricine (pH8.0), 0.01 W/V % Tween 20, 10 mM CaCl2) to prepare an […] enzyme solution. Then, 5FAM-Abu-Gly-Asp-Asp-Lys-Ile-Val-Gly-Gly-Lys (CPQ2)-Lys-Lys-NH2 (manufactured by CHINESE PEPTIDE COMPANY, purity: 94.5) was diluted with the assay buffer to prepare a 1.5 μM substrate solution. Each test compound was dissolved into DMSO, then diluted with the assay buffer 100 times, and further appropriately diluted with an assay buffer comprising 1% DMSO to prepare each compound solution. 10 μL of the compound solution, 15 μL of the assay buffer, and 50 μL of the substrate solution were added to a 96 well black plate (manufactured by Thermo Fisher Scientific Inc., code no.: 9502867), mixed, then 25 μL of the enzyme solution was added thereto, and mixed to start the reaction. Fluorescence intensities at excitation wavelength 485 nm and fluorescence wavelength 535 nm were measured by using a fluorescence plate reader (Flex station 3) (Test compound addition group). Also, the same reaction as described above except for not adding each test compound was carried out (Test compound non-addition group). Additionally, the same reaction as described above except for not adding each test compound and the enzyme was carried out (Control group). Inhibition rate was calculated by the following equation using fluorescence intensity after 20 minutes of reaction start. Inhibition rate (%)=(1−(fluorescence intensity of Test compound addition group−fluorescence intensity of Control group)÷(fluorescence intensity of Test compound non-addition group−fluorescence intensity of Control group))×100

Data set [3] addresses T2, Human recombinant trypsin (Homo sapiens, UniProt P07477).
T2 construct: purchased Wako Pure Chemical Industries, Ltd. 206-17171
Nature of the data set: Human trypsin inhibition test. It is filed as biochemical. The note with it: 20 minutes after reaction start, read-out: Inhibition rate (trypsin); for inhibition at 0.001 µM: compound concentration 1 nM; for inhibition at 0.01 µM: compound concentration 10 nM; for inhibition at 0.1 µM: compound concentration 100 nM. On the procedure: (Test Example 2): Human Trypsin Inhibition Test
Human recombinant trypsin (manufactured by Wako Pure Chemical Industries, Ltd., code no.: 206-17171) was diluted with an assay buffer (0.1 M Tris-HCl (pH8.0), 0.15 M NaCl, 10 mM CaCl2, 0.05% Brij35) to prepare a 10 ng/mL enzyme solution. Then, Boc-Phe-Ser-Arg-MCA (manufactured by PEPTIDE INSTITUTE, INC., code no.: 3107-v) was diluted with the assay buffer to prepare a 40 μM substrate solution. Each test compound was dissolved into DMSO, then diluted with the assay buffer 100 times, and further appropriately diluted with an assay buffer comprising 1% DMSO to prepare each compound solution. 10 μL of the compound solution, 15 μL of the assay buffer, and 50 μL of the substrate solution were added to a 96 well black plate (manufactured by Thermo Fisher Scientific Inc., code no.: 9502867), mixed, and then 25 μL of the enzyme solution was added thereto, and mixed to start the reaction. Fluorescence intensities at excitation wavelength 355 nm and fluorescence wavelength of 460 nm were measured by using a fluorescence plate reader (Flex station 3) (Test compound addition group). Also, the same reaction as described above except for not adding each test compound was carried out (Test compound non-addition group). Additionally, the same reaction as described above except for not adding each test compound and the enzyme was carried out (Control group). Inhibition rate was calculated by the following equation using fluorescence intensity after 20 minutes of reaction start. Inhibition rate (%)=(1−(fluorescence intensity of Test compound addition group−fluorescence intensity of Control group)[…](fluorescence intensity of Test compound non-addition group−fluorescence intensity of Control group))×100

Where a name gives a salt, the structure may show the parent alone.

T1 sequence (P98073 whole entry): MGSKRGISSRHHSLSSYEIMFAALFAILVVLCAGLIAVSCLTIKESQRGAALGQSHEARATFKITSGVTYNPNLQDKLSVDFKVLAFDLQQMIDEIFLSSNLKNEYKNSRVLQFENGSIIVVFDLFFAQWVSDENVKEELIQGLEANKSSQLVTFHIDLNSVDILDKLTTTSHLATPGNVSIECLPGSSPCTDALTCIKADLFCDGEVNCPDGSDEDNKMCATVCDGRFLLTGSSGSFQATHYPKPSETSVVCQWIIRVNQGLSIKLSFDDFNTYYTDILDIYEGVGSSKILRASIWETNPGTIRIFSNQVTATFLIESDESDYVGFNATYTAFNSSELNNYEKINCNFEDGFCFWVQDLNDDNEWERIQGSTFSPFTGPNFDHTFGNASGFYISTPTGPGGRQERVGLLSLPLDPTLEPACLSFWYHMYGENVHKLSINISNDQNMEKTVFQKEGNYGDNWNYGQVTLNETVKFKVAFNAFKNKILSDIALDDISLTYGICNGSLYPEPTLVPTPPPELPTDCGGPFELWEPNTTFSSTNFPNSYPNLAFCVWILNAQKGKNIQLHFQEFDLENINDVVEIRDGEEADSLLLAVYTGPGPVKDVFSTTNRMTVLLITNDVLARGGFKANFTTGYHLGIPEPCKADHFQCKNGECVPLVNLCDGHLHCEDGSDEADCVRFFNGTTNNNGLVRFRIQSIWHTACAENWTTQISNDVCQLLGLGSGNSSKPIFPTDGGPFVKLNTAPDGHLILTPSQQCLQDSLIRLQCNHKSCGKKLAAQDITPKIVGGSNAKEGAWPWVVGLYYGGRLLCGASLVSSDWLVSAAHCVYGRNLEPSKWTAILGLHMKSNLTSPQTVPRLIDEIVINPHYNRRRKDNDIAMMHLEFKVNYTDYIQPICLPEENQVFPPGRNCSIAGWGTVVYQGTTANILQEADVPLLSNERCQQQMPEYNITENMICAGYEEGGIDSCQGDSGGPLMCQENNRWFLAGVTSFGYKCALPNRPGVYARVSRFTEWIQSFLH

For `Cl.N=C(N)Nc1ccc(C(=O)Oc2ccc(CNS(=O)(=O)N(CCOCCOCCOCCN([C@@H](CC(=O)O)C(=O)O)S(=O)(=O)NCc3ccc(OC(=O)c4ccc(NC(=N)N)cc4)cc3)[C@@H](CC(=O)O)C(=O)O)cc2)cc1` [3-(c), 2S,16S)-3,15-bis(N-(4-(4-guanidinobenzoyl)oxy)benzyl)sulfamoyl)-6,9,12-trioxa-3,15-diazaheptadecane-1,2,16,17-tetracarboxylic acid hydrochloride], the inhibition in vivo at 100 mg/kg with DIO mouse (oral 100 mg/kg once daily for 2 weeks) was at least 4%.
With `Cl.N=C(N)Nc1ccc(C(=O)Oc2ccc(CNS(=O)(=O)N(CCOCCOCCOCCN([C@@H](CC(=O)O)C(=O)O)S(=O)(=O)NCc3ccc(OC(=O)c4ccc(NC(=N)N)cc4)cc3)[C@@H](CC(=O)O)C(=O)O)cc2)cc1` [3-(c)], the area under the curve (AUC) (as a rule, the area under the concentration-time curve, a measure of exposure) in data set [1] is at most 100 ng·h/mL.
In the case of `N=C(N)Nc1ccc2c(c1)CCCOc1c(cccc1C(=O)N(CCOCCOCCN(C(=O)c1cccc3c1OCCCc1cc(NC(=N)N)ccc1C(=O)O3)[C@@H](CC(=O)O)C(=O)O)[C@@H](CC(=O)O)C(=O)O)OC2=O` [20-(d), (2S,13S)-3,12-bis(10-guanidino-13-oxo-6,7,8,13-tetrahydrodibenzo[b,f][1,4]dioxecin-4-carbonyl)-6,9-dioxa-3,12-diazatetradecane-1,2,13,14-tetracarboxylic acid], in the data set with DIO mouse, the inhibition in vivo at 50 mg/kg is at least 4%.
Turning to `CN(Cc1ccc(OC(=O)c2ccc(NC(=N)N)cc2)cc1)S(=O)(=O)N(CCOCCOCCN([C@@H](CC(=O)O)C(=O)O)S(=O)(=O)N(C)Cc1ccc(OC(=O)c2ccc(NC(=N)N)cc2)cc1)[C@@H](CC(=O)O)C(=O)O` [22-(a), (2S,13S)-3,12-bis(N-(4-((4-guanidinobenzoyl)oxy)benzyl)-N-methylsulfamoyl)-6,9-dioxa-3,12-diazatetradecane-1,2,13,14-tetracarboxylic acid trifluoroacetate], in data set [2], the inhibition – broadly, the drop in the measured response relative to a control, in per cent – at 0.001 µM was at least 50% and the inhibition at 0.01 µM was at least 50%. In addition, in data set [3], the inhibition at 0.001 µM was at least 50%, the inhibition at 0.01 µM is at least 50% and the inhibition at 0.1 µM was at least 50%.
As to `N=C(N)Nc1ccc(C(=O)Oc2ccc(CNS(=O)(=O)N(CCOCCOCCN(C(CC(=O)O)CC(=O)O)S(=O)(=O)NCc3ccc(OC(=O)c4ccc(NC(=N)N)cc4)cc3)C(CC(=O)O)CC(=O)O)cc2)cc1` [23-(c), 3,3′-(((ethane-1,2-diylbis(oxy))bis(ethane-2,1-diyl))bis((N-(4-((4-guanidinobenzoyl)oxy)benzyl)sulfamoyl)azanediyl))dipentanedioic acid], in data set [2], the inhibition at 0.01 µM is at least 50% and the inhibition at 0.1 µM was at least 50%. For the same compound, in data set [3], the inhibition at 0.001 µM is at least 50%, the inhibition at 0.01 µM was at least 50% and the inhibition at 0.1 µM is at least 50%.
Regarding `N=C(N)Nc1ccc(C(=O)Oc2ccc(CN(CCOCCOCCN(Cc3ccc(OC(=O)c4ccc(NC(=N)N)cc4)cc3)S(=O)(=O)N[C@@H](CC(=O)O)C(=O)O)S(=O)(=O)N[C@@H](CC(=O)O)C(=O)O)cc2)cc1` [24-(a)], the inhibition in vivo at 50 mg/kg with DIO mouse was at least 4%. In addition, in data set [2], the inhibition at 0.01 µM was at least 50% and the inhibition at 0.1 µM was at least 50%. Moreover, in data set [3], the inhibition at 0.001 µM is at least 50%, the inhibition at 0.01 µM was at least 50% and the inhibition at 0.1 µM was at least 50%.
`N=C(N)Nc1ccc(C(=O)Oc2cccc(CNS(=O)(=O)N(CCOCCOCCN([C@@H](CC(=O)O)C(=O)O)S(=O)(=O)NCc3cccc(OC(=O)c4ccc(NC(=N)N)cc4)c3)[C@@H](CC(=O)O)C(=O)O)c2)cc1` [25-(b), (2S,13S)-3,12-bis(N-(3-((4-guanidinobenzoyl)oxy)benzyl)sulfamoyl)-6,9-dioxa-3,12-diazatetradecane-1,2,13,14-tetracarboxylic acid]: in the data set with DIO mouse, the inhibition in vivo at 50 mg/kg is at least 4%. In addition, in data set [2], the inhibition at 0.001 µM is at least 50%, the inhibition at 0.01 µM is at least 50% and the inhibition at 0.1 µM is at least 50%. Further, in data set [3], the inhibition at 0.01 µM was at least 50% and the inhibition at 0.1 µM was at least 50%.
On to `N=C(N)Nc1ccc(C(=O)Oc2ccc(COC(=O)N[C@@H](CC(=O)O)C(=O)O)cc2)cc1` [Reference Example 31-(b), (5)-2-((((4-((4-guanidinobenzoyl)oxy)benzyl)oxy)carbonyl)amino)succinic acid trifluoroacetate], for which the inhibition at 0.1 µM in data set [2] and in data set [3] was at least 50% in each case.
On to `N=C(N)Nc1ccc(C(=O)Oc2ccc(COC(=O)NC(CC(=O)O)C(=O)N[C@@H](CC(=O)O)C(=O)O)cc2)cc1` (stereo partly drawn) [Reference Example 41-(b), (2S)-2-(3-carboxy-2-((((4-((4-guanidinobenzoyl)oxy)benzyl)oxy)carbonyl)amino)propaneamine)succinic acid trifluoroacetate], for which the inhibition at 0.1 µM in data set [2] and in data set [3] was at least 50% each time.
As to `N=C(N)Nc1ccc(C(=O)Oc2ccc(COC(=O)N(Cc3cccc(C(=O)O)c3)[C@@H](CC(=O)O)C(=O)O)cc2)cc1` [Reference Example 49-(b), (S)-2-(3-carboxybenzyl) (((4-((4-guanidinobenzoyl)oxy)benzyl)oxy)carbonyl)amino)succinic acid trifluoroacetate], the inhibition at 0.1 µM in data set [2] and in data set [3] was at least 50% throughout.
Consider `N=C(N)Nc1ccc(C(=O)Oc2ccc(CNS(=O)(=O)N(Cc3cccc(C(=O)O)c3)[C@@H](CC(=O)O)C(=O)O)cc2)cc1` [Reference Example 52-(b), (S)-2-((3-carboxybenzyl)(N-(4-((4-guanidinobenzoyl)oxy)benzyl)sulfamoyl)amino)succinic acid trifluoroacetate], for which the inhibition at 0.1 µM in data set [2] and in data set [3] was at least 50% each time.
On to `N=C(N)Nc1ccc(C(=O)Oc2ccc(CNS(=O)(=O)N[C@@H](CC(=O)O)C(=O)O)cc2)cc1` [Reference Example 55-(b), (S)-2-((N-(4-((4-guanidinobenzoyl)oxy)benzyl)sulfamoyl)amino)succinic acid], for which the inhibition at 0.1 µM in data set [2] and in data set [3] was at least 50% each time.
For the compound `N=C(N)Nc1ccc(C(=O)Oc2cccc(CNS(=O)(=O)N[C@@H](CC(=O)O)C(=O)O)c2)cc1` [Reference Example 73-(b), (S)-2-((N-(3-((4-guanidinobenzoyl)oxy)benzyl)sulfamoyl)amino)succinic acid trifluoroacetate], the inhibition at 0.1 µM in data set [2] and in data set [3] was at least 50% throughout.
As for `N=C(N)Nc1ccc(C(=O)Oc2cccc(C(=O)N[C@@H](CC(=O)O)C(=O)O)c2)cc1` [Reference Example 87-(d), (S)-2-(3-((4-guanidinobenzoyl)oxy)benzamide)succinic acid], the inhibition at 0.1 µM in data set [2] and in data set [3] was at least 50% each time.

For the origin of these results see patent publication US11465965B2, “Double-headed protease inhibitor” (UBE INDUSTRIES, LTD., priority 2017, dated 2022).
